Source: ChEMBL document CHEMBL3997786, “Development of Dihydroxyphenyl Sulfonylisoindoline Derivatives as Liver-Targeting Pyruvate Dehydrogenase Kinase Inhibitors” (J Med Chem, 2017)

Experiments:
[1] = target: T1, [Pyruvate dehydrogenase (acetyl-transferring)] kinase isozyme 2, mitochondrial (Homo sapiens, UniProt Q15119); assay: Inhibition of N-terminal His6-SUMO tagged recombinant human PDK2 using [32P]-gamma-ATP assessed as decrease in incorporation of radioactivity into E1 protein incubated for 2 mins
[2] = target: T1, [Pyruvate dehydrogenase (acetyl-transferring)] kinase isozyme 2, mitochondrial; assay: Binding affinity to N-terminal His6-SUMO tagged recombinant human PDK2 by isothermal titration calorimetry
[3] = target: T2, [Pyruvate dehydrogenase (acetyl-transferring)] kinase isozyme 1, mitochondrial (Homo sapiens, UniProt Q15118); assay: Inhibition of recombinant human PDK1 in presence of E1 protein incubated for 10 mins by titration assay
T2 sequence (Q15118 whole entry): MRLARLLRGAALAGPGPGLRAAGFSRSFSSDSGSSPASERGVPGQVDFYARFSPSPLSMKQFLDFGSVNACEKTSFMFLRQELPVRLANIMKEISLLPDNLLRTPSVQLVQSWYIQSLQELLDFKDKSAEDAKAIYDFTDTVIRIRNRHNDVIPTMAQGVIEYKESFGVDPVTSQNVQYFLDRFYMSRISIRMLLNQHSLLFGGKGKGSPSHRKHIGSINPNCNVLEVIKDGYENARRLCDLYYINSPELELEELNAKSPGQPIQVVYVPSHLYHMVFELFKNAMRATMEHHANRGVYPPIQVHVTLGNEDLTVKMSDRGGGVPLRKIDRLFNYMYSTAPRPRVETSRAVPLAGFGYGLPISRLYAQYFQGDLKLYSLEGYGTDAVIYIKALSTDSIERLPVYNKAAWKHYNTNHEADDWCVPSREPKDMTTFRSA

[4] = target: T3, [Pyruvate dehydrogenase (acetyl-transferring)] kinase isozyme 3, mitochondrial (Homo sapiens, UniProt Q15120); assay: Inhibition of recombinant human PDK3 in presence of E1 protein incubated for 10 mins by titration assay
T3 sequence (Q15120 whole entry): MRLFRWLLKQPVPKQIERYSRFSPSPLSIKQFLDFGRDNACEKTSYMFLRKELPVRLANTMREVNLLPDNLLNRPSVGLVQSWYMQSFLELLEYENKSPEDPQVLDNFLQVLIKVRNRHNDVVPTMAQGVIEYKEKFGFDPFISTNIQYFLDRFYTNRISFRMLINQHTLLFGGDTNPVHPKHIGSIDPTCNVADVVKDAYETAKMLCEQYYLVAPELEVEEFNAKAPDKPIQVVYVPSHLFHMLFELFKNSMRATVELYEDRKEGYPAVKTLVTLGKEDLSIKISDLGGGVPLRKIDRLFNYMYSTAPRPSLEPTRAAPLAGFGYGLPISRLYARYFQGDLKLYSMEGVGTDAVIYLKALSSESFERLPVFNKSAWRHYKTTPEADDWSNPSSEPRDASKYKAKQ

[5] = target: T4, [Pyruvate dehydrogenase (acetyl-transferring)] kinase isozyme 4, mitochondrial (Homo sapiens, UniProt Q16654); assay: Inhibition of recombinant human PDK4 in presence of E1 protein incubated for 10 mins by titration assay
T4 sequence (Q16654 whole entry): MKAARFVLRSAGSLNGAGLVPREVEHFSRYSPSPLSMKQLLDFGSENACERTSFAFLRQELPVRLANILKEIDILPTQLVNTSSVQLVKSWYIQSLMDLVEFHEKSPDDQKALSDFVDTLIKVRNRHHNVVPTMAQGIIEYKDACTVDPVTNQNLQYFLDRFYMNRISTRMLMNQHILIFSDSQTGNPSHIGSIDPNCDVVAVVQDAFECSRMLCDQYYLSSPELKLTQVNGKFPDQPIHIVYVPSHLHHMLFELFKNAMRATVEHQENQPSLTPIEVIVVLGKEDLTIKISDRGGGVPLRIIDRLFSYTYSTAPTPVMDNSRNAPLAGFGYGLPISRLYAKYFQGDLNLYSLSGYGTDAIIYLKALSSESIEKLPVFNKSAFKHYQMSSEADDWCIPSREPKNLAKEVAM

[6] = target: T2, [Pyruvate dehydrogenase (acetyl-transferring)] kinase isozyme 1, mitochondrial; assay: Inhibition of recombinant human PDK1 in presence of E1 protein and PDC core E2/E3BP incubated for 10 mins by titration assay
[7] = target: T1, [Pyruvate dehydrogenase (acetyl-transferring)] kinase isozyme 2, mitochondrial; assay: Inhibition of N-terminal His6-SUMO tagged recombinant human PDK2 in presence of E1 protein and PDC core E2/E3BP incubated for 10 mins by titration assay
[8] = target: T3, [Pyruvate dehydrogenase (acetyl-transferring)] kinase isozyme 3, mitochondrial; assay: Inhibition of recombinant human PDK3 in presence of E1 protein and PDC core E2/E3BP incubated for 10 mins by titration assay
[9] = target: T4, [Pyruvate dehydrogenase (acetyl-transferring)] kinase isozyme 4, mitochondrial; assay: Inhibition of recombinant human PDK4 in presence of E1 protein and PDC core E2/E3BP incubated for 10 mins by titration assay
Plasma [10] = assay: Terminal half life in CD1 mouse plasma at 30 mg/kg, ip by LC-MS/MS analysis; assay type: ADME, organism-based; conditions: in vivo
Plasma [11] = assay: Cmax in CD1 mouse plasma at 30 mg/kg, ip by LC-MS/MS analysis; assay type: ADME, organism-based; design: dose 30 mg/kg, route intraperitoneal; conditions: in vivo
[12] = Tmax in CD1 mouse plasma at 30 mg/kg, ip by LC-MS/MS analysis; assay type: ADME, organism-based
Plasma [13] = assay: AUClast in CD1 mouse plasma at 30 mg/kg, ip by LC-MS/MS analysis; assay type: ADME, organism-based; design: dose 30 mg/kg, route intraperitoneal, time 0 - last; conditions: in vivo
Plasma [14] = assay: Apparent volume of distribution during terminal phase in CD1 mouse plasma at 30 mg/kg, ip by LC-MS/MS analysis; assay type: ADME, organism-based; conditions: in vivo
[15] = Apparent clearance in CD1 mouse plasma at 30 mg/kg, ip by LC-MS/MS analysis; assay type: ADME, organism-based
[16] = Terminal half life in CD1 mouse muscle at 30 mg/kg, ip by LC-MS/MS analysis; assay type: ADME, organism-based, Muscle tissue; conditions: read-out: beta t1/2
[17] = Cmax in CD1 mouse muscle at 30 mg/kg, ip by LC-MS/MS analysis; assay type: ADME, organism-based, Muscle tissue; design: dose 30 mg/kg, route intraperitoneal
[18] = Tmax in CD1 mouse muscle at 30 mg/kg, ip by LC-MS/MS analysis; assay type: ADME, organism-based, Muscle tissue
[19] = AUClast in CD1 mouse muscle at 30 mg/kg, ip by LC-MS/MS analysis; assay type: ADME, organism-based, Muscle tissue; conditions: in vivo
[20] = Apparent clearance in CD1 mouse muscle at 30 mg/kg, ip by LC-MS/MS analysis; assay type: ADME, organism-based, Muscle tissue; conditions: in vivo
[21] = Apparent volume of distribution during terminal phase in CD1 mouse muscle at 30 mg/kg, ip by LC-MS/MS analysis; assay type: ADME, organism-based, Muscle tissue; conditions: in vivo
Liver [22] = assay: Terminal half life in CD1 mouse liver at 30 mg/kg, ip by LC-MS/MS analysis; assay type: ADME, organism-based; conditions: in vivo
Liver [23] = assay: Cmax in CD1 mouse liver at 30 mg/kg, ip by LC-MS/MS analysis; assay type: ADME, organism-based; design: dose 30 mg/kg, route intraperitoneal; conditions: in vivo
Liver [24] = assay: Tmax in CD1 mouse liver at 30 mg/kg, ip by LC-MS/MS analysis; assay type: ADME, organism-based; conditions: in vivo
Liver [25] = assay: AUClast in CD1 mouse liver at 30 mg/kg, ip by LC-MS/MS analysis; assay type: ADME, organism-based; conditions: in vivo
Liver [26] = assay: Apparent volume of distribution during terminal phase in CD1 mouse liver at 30 mg/kg, ip by LC-MS/MS analysis; assay type: ADME, organism-based; conditions: in vivo
Liver [27] = assay: Apparent clearance in CD1 mouse liver at 30 mg/kg, ip by LC-MS/MS analysis; assay type: ADME, organism-based; conditions: in vivo
Mus musculus = assay: In vivo inhibition of PDK in DIO C57BL/6J mouse assessed as increase in PDC activity in liver at 40 to 45 mg/kg/day administered through mini osmotic pump for 2 weeks relative to control; assay type: functional

## NC(=O)C[C@H](N)C(=O)N1CCCN(c2ccc3c(c2)CN(S(=O)(=O)c2ccc(O)cc2O)C3)CC1
[1]
  IC50: 1510 nM

## O=S(=O)(c1ccc(O)cc1O)N1Cc2ccc(NC3CCNCC3)cc2C1
[1]
  IC50: 195 nM
[2]
  Kd: 110 nM

## O=C(C1C[C@@H](O)C(O)[C@H](O)C1)N1CCC(Nc2ccc3c(c2)CN(S(=O)(=O)c2ccc(O)cc2O)C3)CC1 (stereo partly specified)
[1]
  IC50: 432 nM

## O=C(O)CC(=O)N1CCC(Nc2ccc3c(c2)CN(S(=O)(=O)c2ccc(O)cc2O)C3)CC1
[1]
  IC50: 1660 nM

## O=S(=O)(c1ccc(O)cc1O)N1Cc2ccc(NC3CCN(CC(O)CO)CC3)cc2C1 (stereo unspecified)
[1]
  IC50: 154 nM

## NC(=O)C[C@H](N)C(=O)N1CCC(Nc2ccc3c(c2)CN(S(=O)(=O)c2ccc(O)cc2O)C3)CC1
[1]
  IC50: 58 nM
[3]
  IC50: 2540 nM
[4]
  IC50: 45800 nM
[5]
  IC50: 284 nM
[6]
  IC50: 2060 nM
[7]
  IC50: 81 nM
[8]
  IC50: 1710 nM
[9]
  IC50: 416 nM
[2]
  Kd: 22 nM
Plasma [10]
  beta t1/2: 288 min
Plasma [11]
  Cmax: 5443 ng/mL
[12]
  Tmax: 10 min
Plasma [13]
  AUClast: 234088 ng·min/mL
Plasma [14]
  Vz/F: 1289 mL
[15]
  CL/F: 3.11 mL/min
[16]
  half-life: 324 min
[17]
  Cmax: 2420 ng/g
[18]
  Tmax: 10 min
[19]
  AUClast: 83083 ng·min/g
[20]
  CL/F: 8.64 g/min
[21]
  Vz/F: 4043 g
Liver [22]
  beta t1/2: 303 min
Liver [23]
  Cmax: 18767 ng/g
Liver [24]
  Tmax: 30 min
Liver [25]
  AUClast: 2682301 ng·min/g
Liver [26]
  Vz/F: 116 g
Liver [27]
  CL/F: 0.266 g/min
Mus musculus
  fold change (FC): 6

## NC(=O)C[C@H](N)C(=O)N1CC(Nc2ccc3c(c2)CN(S(=O)(=O)c2ccc(O)cc2O)C3)C1
[1]
  IC50: 65 nM

## O=S(=O)(c1ccc(O)cc1O)N1Cc2ccc(NC3CCN(Cc4ccccc4)CC3)cc2C1
[1]
  IC50: 416 nM

## N[C@@H](CO)C(=O)N1CCC(Nc2ccc3c(c2)CN(S(=O)(=O)c2ccc(O)cc2O)C3)CC1
[1]
  IC50: 68 nM

## O=C(O)c1ccccc1C(=O)N1CCC(Nc2ccc3c(c2)CN(S(=O)(=O)c2ccc(O)cc2O)C3)CC1
[1]
  IC50: 565 nM

## O=S(=O)(c1ccc(O)cc1O)N1Cc2ccc(N3CCCCC3)cc2C1
[1]
  IC50: 4370 nM

## O=C(O)CCCCCCCC(=O)N1CCC(Nc2ccc3c(c2)CN(S(=O)(=O)c2ccc(O)cc2O)C3)CC1
[1]
  IC50: 629 nM

## C[C@H](O)[C@H](N)C(=O)N1CCC(Nc2ccc3c(c2)CN(S(=O)(=O)c2ccc(O)cc2O)C3)CC1
[1]
  IC50: 91 nM
